In patent US9487749B2 (priority 2009, dated 2016):
Entries after “also recorded” stand apart in the source; their conditions may differ.

Test system: Escherichia coli (ATCC strain 8739)
Assay: E. coli growth profile in sterile and non-sterile MSM in TSB or saline (USP <51> AET basis, MacConkey agar streak)
Settings: for Growth profile of E. coli: 5-16% MSM
Protocol: The USP <51> AET is a compendial (United States Pharmacopeia) antimicrobial effectiveness test method for determining if a preservative is effective based upon a verified and validated methodology.
All tubes except the negative controls were spiked with 250 μl of a 1.2×10^8 culture, which yields an initial E. coli population density of 1.2×10^6/mL. Tubes were incubated at 25° C.

## CS(C)(=O)=O [MSM, Methylsulfonylmethane]
5-9% MSM in TSB/TSBA media, 24 hours
  visual signs of growth in culture tubes: visible signs of growth
5-10% MSM in TSB/TSBA, 48 hours, 72 hours
  visual signs of growth in culture tubes: signs of heavy growth
10-16% MSM in TSB/TSBA media, 24 hours
  visual signs of growth in culture tubes: no signs of growth
11% MSM in TSB/TSBA, 48 hours, 72 hours
  visual signs of growth in culture tubes: Apparent growth
12-15% MSM in TSB/TSBA, 48 hours, 72 hours
  visual signs of growth in culture tubes: little to no observable signs of growth
MSM in saline tubes, 24 hours
  visual signs of growth in culture tubes: did not show any signs of growth
After 24 hours, NS (sterile saline added to non-sterile MSM)
  Growth profile of E. coli: Heavy; also recorded: Moderate
After 24 hours, NSA (saline + MSM, then sterilized)
  Growth profile of E. coli: Heavy; also recorded: Moderate
After 24 hours, TSB (sterile TSB added to non-sterile MSM)
  Growth profile of E. coli: Heavy and Moderate and Few
After 24 hours, TSBA (TSB + MSM, then sterilized)
  Growth profile of E. coli: Heavy and Moderate and Few
After 48 hours, NS
  Growth profile of E. coli: Heavy; also recorded: Moderate
After 48 hours, NSA
  Growth profile of E. coli: Heavy; also recorded: Moderate
After 48 hours, TSB
  Growth profile of E. coli: Heavy and Moderate and Few
After 48 hours, TSBA
  Growth profile of E. coli: Heavy and Moderate and Few
After 72 hours, NS
  Growth profile of E. coli: Heavy; also recorded: Moderate
After 72 hours, NSA
  Growth profile of E. coli: Heavy; also recorded: Moderate
After 72 hours, TSB
  Growth profile of E. coli: Heavy and Moderate and Few
After 72 hours, TSBA
  Growth profile of E. coli: Heavy and Moderate and Few
